Experimental data from ChEMBL document CHEMBL1154733, “Synthesis and in vitro opioid receptor functional antagonism of methyl-substituted analogues of (3R)-7-hydroxy-N-[(1S)-1-{[(3R,4R)-4-(3-hydroxyphenyl)-3,4-dimethyl-1-piperidinyl]methyl}-2-methylpropyl]-1,2,3,4-tetrahydro-3-isoquinolinecarboxamide (JDTic)” (J Med Chem, 2009).

What was measured:
[1] = target: Mu-type opioid receptor (Homo sapiens) (UniProt P35372); experiment: Antagonist activity at human cloned mu opioid receptor expressed in CHO cells assessed as inhibition of DAMGO-stimulated [35S]GTPgammaS binding; type: functional, cell-based
[2] = target: Delta-type opioid receptor (Homo sapiens) (UniProt P41143); experiment: Antagonist activity at human cloned delta opioid receptor expressed in CHO cells assessed as inhibition of DPDPE-stimulated [35S]GTPgammaS binding; type: functional, cell-based
[3] = target: Kappa-type opioid receptor (Homo sapiens) (UniProt P41145); experiment: Antagonist activity at human cloned kappa opioid receptor expressed in CHO cells assessed as inhibition of U69593-stimulated [35S]GTPgammaS binding; type: functional, cell-based
Homo sapiens [4] = species: Homo sapiens; experiment: Ratio of Ke for human cloned mu opioid receptor to Ke for human cloned kappa opioid receptor
Homo sapiens [5] = species: Homo sapiens; experiment: Ratio of Ke for human cloned delta opioid receptor to Ke for human cloned kappa opioid receptor
[6] = target: Kappa-type opioid receptor (Homo sapiens) (UniProt P41145); experiment: Ratio of compound Ke to JDTic Ke for human cloned kappa opioid receptor expressed in CHO cells; type: cell-based
[7] = target: Mu-type opioid receptor (Homo sapiens) (UniProt P35372); experiment: Ratio of JDTic Ke to compound Ke for human cloned mu opioid receptor expressed in CHO cells; type: cell-based

Chain of Delta-type opioid receptor (Homo sapiens) (P41143 whole entry): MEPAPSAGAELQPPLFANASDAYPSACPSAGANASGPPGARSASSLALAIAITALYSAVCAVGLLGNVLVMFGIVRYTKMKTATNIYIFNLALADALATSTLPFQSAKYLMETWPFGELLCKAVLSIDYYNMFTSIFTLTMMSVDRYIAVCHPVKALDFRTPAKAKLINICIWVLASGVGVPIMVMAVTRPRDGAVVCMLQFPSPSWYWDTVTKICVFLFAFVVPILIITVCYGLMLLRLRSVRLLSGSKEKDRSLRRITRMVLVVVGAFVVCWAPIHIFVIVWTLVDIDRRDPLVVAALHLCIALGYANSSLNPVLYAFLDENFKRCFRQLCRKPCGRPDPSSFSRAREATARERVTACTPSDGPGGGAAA
Chain of Kappa-type opioid receptor (Homo sapiens) (P41145 whole entry): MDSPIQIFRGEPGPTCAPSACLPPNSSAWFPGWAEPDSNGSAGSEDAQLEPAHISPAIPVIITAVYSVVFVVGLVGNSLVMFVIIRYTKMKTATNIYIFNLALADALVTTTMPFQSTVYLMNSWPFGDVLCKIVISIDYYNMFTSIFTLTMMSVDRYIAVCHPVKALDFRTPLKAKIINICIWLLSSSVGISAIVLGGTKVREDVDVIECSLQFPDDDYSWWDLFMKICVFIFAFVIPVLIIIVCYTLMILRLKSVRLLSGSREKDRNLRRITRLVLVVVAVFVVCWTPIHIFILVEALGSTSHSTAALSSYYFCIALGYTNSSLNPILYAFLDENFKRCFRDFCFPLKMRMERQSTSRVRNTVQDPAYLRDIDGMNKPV
Chain of Mu-type opioid receptor (Homo sapiens) (P35372 whole entry): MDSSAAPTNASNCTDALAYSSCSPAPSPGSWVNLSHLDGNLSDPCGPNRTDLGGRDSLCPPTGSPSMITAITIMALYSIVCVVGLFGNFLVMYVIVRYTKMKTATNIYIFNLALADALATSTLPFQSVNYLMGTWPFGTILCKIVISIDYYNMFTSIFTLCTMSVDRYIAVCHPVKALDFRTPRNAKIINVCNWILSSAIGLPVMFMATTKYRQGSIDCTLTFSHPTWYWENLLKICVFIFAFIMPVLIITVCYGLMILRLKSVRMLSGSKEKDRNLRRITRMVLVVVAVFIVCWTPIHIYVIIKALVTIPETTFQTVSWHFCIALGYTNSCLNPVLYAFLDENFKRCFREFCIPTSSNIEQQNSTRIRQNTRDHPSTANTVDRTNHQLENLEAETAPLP

With `COc1ccc2c(c1)CN[C@@](C)(C(=O)N[C@H](CN1CC[C@@](C)(c3cccc(O)c3)[C@@H](C)C1)C(C)C)C2` the Ke [1] was 3.8 nM, the Ke [2] was 36.8 nM and the Ke [3] was 0.93 nM. For the same compound, the Ratio Ke (Homo sapiens [4]) was 4 and the Ratio Ke (Homo sapiens [5]) was 40.

`COc1ccc2c(c1)CN(C)[C@@](C)(C(=O)N[C@H](CN1CC[C@@](C)(c3cccc(O)c3)[C@@H](C)C1)C(C)C)C2` was tested, and the Ke [1] was 7 nM and the Ke [3] was 2.2 nM.

With `COc1cccc([C@]2(C)CCN(C[C@@H](NC(=O)[C@@]3(C)Cc4ccc(O)cc4CN3)C(C)C)C[C@@H]2C)c1` the Ke [2] was 2200 nM and the Ke [3] was 0.26 nM.

`CC[C@H](C)[C@@H](CN1CC[C@@](C)(c2cccc(OC)c2)[C@@H](C)C1)NC(=O)[C@H]1Cc2ccc(O)cc2CN1C` showed a Ke [1] of 360 nM, a Ke [2] of over 10000 nM and a Ke [3] of 2.03 nM. The Ratio Ke (Homo sapiens [4]) was 180.

`COc1ccc2c(c1)CN[C@@H](C(=O)N[C@H](CN1CC[C@@](C)(c3cccc(O)c3)[C@@H](C)C1)C(C)C)C2` gave a Ratio Ke (Homo sapiens [4]) of 857, a Ratio Ke (Homo sapiens [5]) of 1970 and a Ratio Ke [6] of 3.

In the case of `COc1cccc([C@]2(C)CCN(C[C@@H](NC(=O)[C@@]3(C)Cc4ccc(OC)cc4CN3)C(C)C)C[C@@H]2C)c1`, the Ke [2] is reported as over 10000 nM and the Ke [3] is reported as 15.2 nM.

`COc1cccc([C@]2(C)CCN(C[C@@H](NC(=O)[C@H]3Cc4ccc(O)cc4CN3C)C(C)C)C[C@@H]2C)c1` gave a Ke [1] of 880 nM, a Ke [2] of 2300 nM and a Ke [3] of 4.3 nM. The Ratio Ke (Homo sapiens [4]) was 204 and the Ratio Ke (Homo sapiens [5]) was 535.

Compound `CC[C@H](C)[C@@H](CN1CC[C@@](C)(c2cccc(O)c2)[C@@H](C)C1)NC(=O)[C@@]1(C)Cc2ccc(OC)cc2CN1` has a Ke [1] of 17.5 nM, a Ke [2] of 18.7 nM and a Ke [3] of 3.5 nM. It also gave a Ratio Ke (Homo sapiens [4]) of 5 and a Ratio Ke (Homo sapiens [5]) of 5.

In the case of `CC(C)[C@@H](CN1CC[C@@](C)(c2cccc(O)c2)[C@@H](C)C1)NC(=O)[C@H]1Cc2ccc(O)cc2CN1`, the Ratio Ke (Homo sapiens [4]) is reported as 1260 and the Ratio Ke (Homo sapiens [5]) is reported as 3830.

Work on `CC[C@H](C)[C@@H](CN1CC[C@@](C)(c2cccc(O)c2)[C@@H](C)C1)NC(=O)[C@H]1Cc2ccc(O)cc2CN1` yielded a Ratio Ke (Homo sapiens [4]) of 100, a Ratio Ke (Homo sapiens [5]) of 800 and a Ratio Ke [7] of 8.

`CC[C@H](C)[C@@H](CN1CC[C@@](C)(c2cccc(O)c2)[C@@H](C)C1)NC(=O)[C@@]1(C)Cc2ccc(O)cc2CN1` showed a Ke [1] of 8.7 nM and a Ke [3] of 0.11 nM.

Work on `COc1cccc([C@]2(C)CCN(C[C@@H](NC(=O)[C@H]3Cc4ccc(O)cc4CN3)C(C)C)C[C@@H]2C)c1` yielded a Ke [1] of 24 nM, a Ke [2] of 21.2 nM and a Ke [3] of 0.037 nM. The Ratio Ke (Homo sapiens [4]) was 649, the Ratio Ke (Homo sapiens [5]) was 573 and the Ratio Ke [6] was 2.

`CC(C)[C@@H](CN1CC[C@@](C)(c2cccc(O)c2)[C@@H](C)C1)NC(=O)[C@@]1(C)Cc2ccc(O)cc2CN1` was tested, and the Ke [1] was 3.6 nM, the Ke [2] was 854 nM and the Ke [3] was 0.03 nM. It also gave a Ratio Ke (Homo sapiens [4]) of 120 and a Ratio Ke (Homo sapiens [5]) of 28500.

`CC[C@H](C)[C@@H](CN1CC[C@@](C)(c2cccc(OC)c2)[C@@H](C)C1)NC(=O)[C@@]1(C)Cc2ccc(O)cc2CN1` gave a Ke [2] of 2100 nM and a Ke [3] of 0.52 nM.

Work on `CC[C@H](C)[C@@H](CN1CC[C@@](C)(c2cccc(O)c2)[C@@H](C)C1)NC(=O)[C@H]1Cc2ccc(O)cc2CN1C` yielded a Ke [1] of 7.2 nM, a Ke [2] of 132 nM and a Ke [3] of 0.11 nM. The Ratio Ke (Homo sapiens [4]) was 66 and the Ratio Ke (Homo sapiens [5]) was 1200.

`CC[C@H](C)[C@@H](CN1CC[C@@](C)(c2cccc(OC)c2)[C@@H](C)C1)NC(=O)[C@H]1Cc2ccc(O)cc2CN1` gave a Ke [1] of 5.1 nM and a Ke [3] of 0.96 nM.

Work on `CC(C)[C@@H](CN1CC[C@@](C)(c2cccc(O)c2)[C@@H](C)C1)NC(=O)[C@H]1Cc2ccc(O)cc2CN1C` yielded a Ke [1] of 210 nM, a Ke [2] of 491 nM and a Ke [3] of 0.16 nM. The Ratio Ke (Homo sapiens [4]) was 1310 and the Ratio Ke (Homo sapiens [5]) was 3070.
